Assay results reported in paper PMC9223267, “Serine hydroxymethyltransferase as a potential target of antibacterial agents acting synergistically with one-carbon metabolism-related inhibitors” (Communications Biology, 2022).
Values joined by “and” are separate entries in the source; they are usually repeats but may differ in a detail not shown here. Equal values may be shown once. Read-outs that look alike come from different tables or passages of the source.

Tests used:
[1] = test system: S. aureus; experiment: Antibacterial activity evaluation (turbidity, OD600); type: cell-based, Staphylococcus aureus (ATCC29213); settings: Staphylococcus aureus, S. aureus ATCC29213
Description: (§1) E. faecium and E. faecalis were diluted to turbidity equivalents that matched 1.0 McFarland (McF) standard in distilled water (S. aureus and E. coli were also diluted to 0.5 McF), and additionally diluted 1:200 in Mueller–Hinton (MH) broth. The designated concentrations of the tested compounds were prepared by ten-fold serial dilutions directly in 96-well microtiter plates (IWAKI, Shizuoka, Japan), as previously described. […] The other compounds were serially diluted from 20 μM downwards (final concentration, 10 μM). […] Positive control wells included bacteria without any compound, and the negative control wells only contained MH broth. […] The optical density at 600 nm (OD600) was measured using a GloMax microtiter plate reader (Promega, WI, USA), and the EC50 values of each test compound and standard error were calculated by Microsoft Excel function, AVERAGE and STDEV/SQRT.

[2] = test system: E. faecium; experiment: as above; type: cell-based, Enterococcus faecium (JCM5804); settings: Enterococcus faecium
Description: as §1

[3] = test system: E. faecalis; experiment: as above; type: cell-based, Enterococcus faecalis (JCM7783); settings: Enterococcus faecalis, E. faecalis JCM7783
Description: as §1

[4] = test system: E. coli; experiment: as above; type: cell-based, Escherichia coli (ATCC25922); settings: Escherichia coli, E. coli ATCC25922
Description: as §1

[5] = test system: E. faecium; experiment: Antibacterial assay with an excess concentration of biomolecules (Ser, Gly, inosine, dT, FA); type: cell-based, Enterococcus faecium (JCM5804); settings: Enterococcus faecium
Description: as §1
The ratio of the control EC50 (no competitors added) to the experimental EC50 (competitors added) was calculated for each test substance.

[6] = target: efmSHMT (Enterococcus faecium, UniProt I3U4H4, M1V); experiment: biochemical; type: binding; settings: 5 μM efmSHMT, 10 mM Gly and 100 μM Ser
Description: After adding Me-THF, the efmSHMT solution was incubated for 30 min at room temperature. The optical density at 500 and 600 nm (OD500 and OD600) were then measured using a nanodrop spectrophotometer[24],[25]. OD600 was used as the background. After detection, each concentration of inhibitor was added to the efmSHMT solution and incubated for 30 min at room temperature. OD500 and OD600 were measured. The relative OD500 intensity was calculated as relative OD500 = (OD500 – OD600)/(MAXOD500 – OD600), where MAXOD500 is the average OD500 value in the presence of 1000, 2000 and 4000 μM Me-THF without inhibitors. […] Here, IC50 is the concentration of inhibitor added to the efmSHMT solution and [Me-THF] is the EC50 in the presence of the inhibitor concentration. [EC50 without inhibitor] is the EC50 of Me-THF in the absence of the inhibitor.

[7] = test system: efmSHMT; type: binding, Enterococcus faecium; settings: DSF; final drug concentration 50 μM
Description: Protein samples were prepared as 20 μL aliquots containing 0.1 mg/mL protein (efmSHMT/ecSHMT), 1 μL of the ligand in DMSO (final drug concentration, 50 μM) and 2% or 4% SYPRO Orange (Invitrogen, MA, USA). […] Melting points were evaluated as the half-point of the maximum intensity of each curve.

[8] = test system: Caski cells; experiment: Cell cytotoxicity assay (Cell Counting Kit-8, 5 days); type: cell-based, human; settings: with each cell line (Caski, Hep-2 and Calu-3)
Description: After serial dilution, 100 μL of FBS-containing medium including the cells was added to each well of the plate. […] All CC50 determining assays were conducted in duplicate or triplicate[39],[40].

[9] = test system: E. faecium; experiment: Bacterial viability assay (Microbial Viability Assay Kit-WST, OD450); type: cell-based, Enterococcus faecium
Description: Living E. faecium were determined using the Microbial Viability Assay Kit-WST (DOJINDO, Tokyo, Japan). […] Positive control wells included bacteria seeded into MH broth without compounds, and the negative control wells contained MH broth only. […] Five microlitres of the colouring reagent were added to each well of the 96-well plate every 2 h after starting incubation with each compound.

[10] = read-out: pEC50 ± S.E. (converted)
[11] = E. faecium JCM5804, read-out: EC50
[12] = E. faecium JCM5804, read-out: pEC50 ± S.E. (converted)
[13] = JCM5804, E. faecium JCM5804, 1 mM Inosine, read-out: EC50
[14] = JCM5804, E. faecium JCM5804, 1 mM Inosine, read-out: pEC50 ± S.E. (converted)
[15] = JCM5804, E. faecium JCM5804, 1 mM deoxythymidine, read-out: EC50
[16] = JCM5804, E. faecium JCM5804, 1 mM deoxythymidine, read-out: pEC50 ± S.E. (converted)
[17] = JCM5804, E. faecium JCM5804, 10 mM Glycine, read-out: EC50
[18] = JCM5804, E. faecium JCM5804, 10 mM Glycine, read-out: pEC50 ± S.E. (converted)
[19] = JCM5804, E. faecium JCM5804, 100 mM Serine, read-out: EC50
[20] = JCM5804, E. faecium JCM5804, 100 mM Serine, read-out: pEC50 ± S.E. (converted)
[21] = JCM5804, E. faecium JCM5804, 0.1 M folate, read-out: EC50
[22] = JCM5804, E. faecium JCM5804, 0.1 M folate, read-out: pEC50 ± S.E. (converted)

efmSHMT (Enterococcus faecium, UniProt I3U4H4, M1V), sequence (I3U4H4 whole entry M1V): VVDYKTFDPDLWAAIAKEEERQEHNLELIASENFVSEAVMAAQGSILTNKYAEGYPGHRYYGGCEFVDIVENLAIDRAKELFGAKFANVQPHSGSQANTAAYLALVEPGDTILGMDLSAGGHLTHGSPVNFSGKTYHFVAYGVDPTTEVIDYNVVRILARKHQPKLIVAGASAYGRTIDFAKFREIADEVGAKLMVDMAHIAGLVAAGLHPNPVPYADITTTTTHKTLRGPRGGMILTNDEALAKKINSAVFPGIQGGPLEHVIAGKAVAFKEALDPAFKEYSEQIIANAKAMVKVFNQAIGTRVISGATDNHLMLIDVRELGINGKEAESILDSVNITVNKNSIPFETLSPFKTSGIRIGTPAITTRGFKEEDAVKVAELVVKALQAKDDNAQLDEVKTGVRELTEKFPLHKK

EC50 ([1]; read-out: EC50)	EC50 [1, 10]	EC50 [2, 11]	EC50 [2, 12]	EC50 ([3]; read-out: EC50)	EC50 [3, 10]	EC50 ([4]; read-out: EC50)	EC50 [4, 10]	EC50 [5, 13]	EC50 [5, 14]	EC50 [5, 15]	EC50 [5, 16]	EC50 [5, 17]	EC50 [5, 18]	EC50 [5, 19]	EC50 [5, 20]	EC50 [5, 21]	EC50 [5, 22]	Compound	also measured
30 nM	31.6 nM	73 nM	79.4 nM	380 nM	398 nM	10000 nM	10000 nM	720 nM	794 nM	21000 nM	20000 nM	65 nM	79.4 nM	98 nM	100 nM	270 nM	251 nM	O=c1[nH]c(=O)n([C@@H]2O[C@H](CO)[C@@H](O)[C@H]2O)cc1F [5-FUrd, 5-fluorouridine]	
8.9 nM	7.94 nM	29 nM	31.6 nM	310 nM	316 nM	10000 nM	10000 nM	24 nM	25.1 nM	> 100000 nM	> 100000 nM	6.4 nM	6.31 nM	32 nM	31.6 nM	190 nM	200 nM	O=c1[nH]c(=O)n([C@H]2C[C@H](O)[C@@H](CO)O2)cc1F [5-FdU, 5-fluoro-2′-deoxyuridine]	
> 100000 nM	> 100000 nM	13 nM	12.6 nM	> 100000 nM	> 100000 nM	> 100000 nM	> 100000 nM	8.2 nM	7.94 nM	> 100000 nM	> 100000 nM	10 nM	10 nM	14 nM	12.6 nM	> 100000 nM	> 100000 nM	Cc1nc2ccc(CN(C)c3ccc(C(=O)N[C@@H](CCC(=O)O)C(=O)O)s3)cc2c(=O)[nH]1 [RTX, raltitrexed]	
290 nM	316 nM	2.8 nM	2.51 nM	270 nM	251 nM	170 nM	158 nM		2.51 nM	54000 nM	50100 nM	2.1 nM	2 nM	3.3 nM	3.16 nM	41 nM	50.1 nM	COc1cc(Cc2cnc(N)nc2N)cc(OC)c1OC [TMP, trimethoprim]	selectivity index (S.I.): CC50 against each cell line / EC50 against E. faecium [8]: high bacterial selectivity; Relative bacterial viability ([9]; 2 nM, 0 hours, single values): 0.02108 and 0.02214 and 0.02363 and 0.02319 and 0.01396 and 0.01461 and 0.0211 and 0.02201; Relative bacterial viability ([9]; 2 nM, 2 hours, single values): 0.03256 and 0.03276 and 0.0358 and 0.03793 and 0.02817 and 0.0276 and 0.03152 and 0.02983; Relative bacterial viability ([9]; 2 nM, 8 hours, single values): 0.6778 and 0.6938 and 0.7383 and 0.6754 and 0.6268 and 0.6594 and 0.6905 and 0.6243; Relative bacterial viability ([9]; 2 nM, 10 hours, single values): 0.7078 and 0.7215 and 0.7487 and 0.6774; Relative bacterial viability ([9]; 2 nM, 12 hours, single values): 0.7931 and 0.8524 and 0.8435 and 0.6543 and 0.7061 and 0.7294 and 0.7396 and 0.7126; Relative bacterial viability ([9]; 2 nM, 14 hours, single values): 0.8722 and 0.7867 and 0.9195 and 0.9126 and 0.8033 and 0.8796 and 0.8243 and 0.8853; Relative bacterial viability ([9]; 20 nM, 0 hours, single values): 0.02896 and 0.02213 and 0.01772 and 0.01904 and 0.02117 and 0.02218 and 0.02462 and 0.0192; Relative bacterial viability ([9]; 20 nM, 2 hours, single values): 0.03873 and 0.03054 and 0.0347 and 0.03215 and 0.02983 and 0.02843 and 0.03279 and 0.02955; Relative bacterial viability ([9]; 20 nM, 4 hours, single values): 0.0705 and 0.06896 and 0.0607 and 0.07039 and 0.05304 and 0.06167 and 0.06352 and 0.06901; Relative bacterial viability ([9]; 20 nM, 6 hours, single values): 0.09036 and 0.1064 and 0.1059 and 0.1127 and 0.1209 and 0.1443 and 0.152 and 0.1417; Relative bacterial viability ([9]; 20 nM, 8 hours, single values): 0.1279 and 0.1203 and 0.1189 and 0.109 and 0.09529 and 0.09698 and 0.1178 and 0.11; Relative bacterial viability ([9]; 20 nM, 10 hours, single values): 0.1127 and 0.1159 and 0.1045 and 0.09171 and 0.08771 and 0.09868 and 0.1124 and 0.1197; Relative bacterial viability ([9]; 20 nM, 12 hours, single values): 0.09851 and 0.09831 and 0.1104 and 0.1131 and 0.09658 and 0.1085 and 0.1167 and 0.1091; EC50 ([9]; Enterococcus faecium, relative bacterial viability after 14 h incubation): 8.8 nM
																		CN[C@H](CC(C)C)C(=O)N[C@H]1C(=O)N[C@@H](CC(N)=O)C(=O)N[C@H]2C(=O)N[C@H]3C(=O)N[C@H](C(=O)N[C@H](C(=O)O)c4cc(O)cc(O)c4-c4cc3ccc4O)[C@H](O)c3ccc(c(Cl)c3)Oc3cc2cc(c3O[C@@H]2O[C@H](CO)[C@@H](O)[C@H](O)[C@H]2O[C@H]2C[C@](C)(N)[C@H](O)[C@H](C)O2)Oc2ccc(cc2Cl)[C@H]1O [VCM, vancomycin]	EC50 ([1]; VCM in μg/mL, read-out: EC50): 0.36 µg/mL; EC50 ([2]; VCM in μg/mL, E. faecium JCM5804, read-out: EC50): 0.31 µg/mL; EC50 ([3]; VCM in μg/mL, read-out: EC50): 3.2 µg/mL; EC50 ([4]; VCM in μg/mL, read-out: EC50): > 100 µg/mL; EC50 [5]: 0.29 µg/mL; EC50 ([5]; VCM in μg/mL, 1 mM Inosine, read-out: EC50): 0.34 µg/mL; EC50 ([5]; VCM in μg/mL, 1 mM deoxythymidine, read-out: EC50): 0.42 µg/mL; EC50 ([5]; VCM in μg/mL, 100 mM Serine, read-out: EC50): 0.3 µg/mL; EC50 ([5]; VCM in μg/mL, 0.1 M folate, read-out: EC50): 0.31 µg/mL
																		NCC(=O)O [glycine]	Relative bacterial viability ([9]; 50 mM glycine (Supplementary Fig. S2)): ~ 0.75; Relative bacterial viability ([9]; 100 mM glycine (Supplementary Fig. S2)): ~0.40

Compound	EC50 ([1]; read-out: EC50)	EC50 [1, 10]	EC50 [2, 11]	EC50 [2, 12]	EC50 ([3]; read-out: EC50)	EC50 [3, 10]	EC50 ([4]; read-out: EC50)	EC50 [4, 10]	EC50 [5, 13]	EC50 [5, 14]	EC50 [5, 15]	EC50 [5, 16]	EC50 [5, 17]	EC50 [5, 18]	EC50 [5, 19]	EC50 [5, 20]	EC50 [5, 21]	EC50 [5, 22]	also measured
Nc1nc2[nH]cc(CCc3ccc(C(=O)N[C@@H](CCC(=O)O)C(=O)O)cc3)c2c(=O)[nH]1 [PMX, pemetrexed]	> 100000 nM	> 100000 nM			> 100000 nM	> 100000 nM	> 100000 nM	> 100000 nM	0.074 nM	0.0794 nM	> 100000 nM	> 100000 nM	0.062 nM	0.0631 nM	0.25 nM	0.251 nM	1800 nM	2000 nM	EC50 ([2]; JCM5804, E. faecium JCM5804, read-out: EC50): 0.052 nM; EC50 ([2]; JCM5804, E. faecium JCM5804, read-out: pEC50 ± S.E. (converted)): 0.0501 nM; Ki ([6]; Ki, Cheng-Prusoff): 117000 nM; Ki ([6]; pKi ± pSE): 126000 nM; ΔTm (thermal stability of efmSHMT) [7]: 0.9 °C
